Activity calls are given as the source filed them. No cut-off for these calls is given here.
Columns and labels:
[1] = test system: MDCK; experiment: Cytotoxicity against MDCK cells at 100 uM; type: cell-based, Canis lupus familiaris; conditions: dog
[2] = test system: Influenza A virus; experiment: Antiviral activity against Influenza A virus (A/WSN/1933(H1N1)) infected in MDCK cells assessed as inhibition of virus induced cytopathic effect; type: functional, organism-based
[3] = molecular target: Neuraminidase (Influenza A virus (strain A/Wilson-Smith/1933 H1N1) (Influenza A virus(strain A/WS/1933 H1N1)), UniProt P03470); experiment: Inhibition of Influenza A virus A/WSN/1933(H1N1)) neuraminidase in the presence of 2'-(4-methyl-umbelliferyl)-alphaD-N-acetylneuraminic acid substrate after 10 mins by fluorometric assay
[4] = test system: Plasma; experiment: Metabolic stability in Sprague-Dawley rat plasma assessed as release of zanamivir and caffiec acid after 24 hrs by LC-QTOF MS analysis; type: ADME, cell-free
[5] = test system: Plasma; experiment: Metabolic stability in Sprague-Dawley rat plasma assessed as release of zanamivir and caffiec acid after 24 hrs by MALDI-TOF analysis; type: ADME, cell-free
[6] = test system: Plasma; experiment: Metabolic stability in Sprague-Dawley rat plasma after 24 hrs by LC-QTOF MS analysis; type: ADME, cell-free
[7] = test system: Plasma; experiment: Metabolic stability in Sprague-Dawley rat plasma after 24 hrs by MALDI-TOF analysis; type: ADME, cell-free
[8] = test system: Influenza A virus; experiment: Antiviral activity against Influenza A virus (A/VietNam/1194/2004(H5N1)) NIBRG-14 infected in BALB/c mouse assessed as protection from virus-induced death at 1.2 umol/kg/day, intranasally administered bid on days 1 to 4 and day 0 of infection measured over 14 days; type: functional, organism-based
[9] = test system: Influenza A virus; experiment: Antiviral activity against Influenza A virus (A/VietNam/1194/2004(H5N1)) NIBRG-14 infected in BALB/c mouse assessed as protection from virus-induced death at 12 umol/kg/day, intranasally administered bid on days 1 to 4 and day 0 of infection measured over 14 days; type: functional, organism-based
[10] = test system: Influenza A virus; experiment: Antiviral activity against Influenza A virus (A/California/07/2009(H1N1)) infected in BALB/c mouse assessed as protection from virus-induced death at 1.2 umol/kg/day, intranasally administered bid on days 1 to 4 and day 0 of infection measured after 14 days; type: functional
[11] = test system: Influenza A virus; experiment: Antiviral activity against Influenza A virus (A/California/07/2009(H1N1)) infected in BALB/c mouse assessed as protection from virus-induced death at 0.012 umol/kg/day, intranasally administered bid on days 1 to 4 and day 0 of infection measured over 14 days; type: functional
[12] = test system: Influenza A virus; experiment: Antiviral activity against Influenza A virus (A/California/07/2009(H1N1)) infected in BALB/c mouse assessed as protection from virus-induced death at 0.12 umol/kg/day, intranasally administered bid on days 1 to 4 and day 0 of infection measured over 14 days; type: functional
[13] = test system: RAW264.7; experiment: Antiinflammatory activity in LPS-activated mouse RAW264.7 cells assessed as inhibition of LPS induced TNFalpha production treated 30 mins prior to LPS challenge measured after 6 hrs by RT-PCR analysis; type: functional, cell-based
[14] = test system: RAW264.7; experiment: Antiinflammatory activity in LPS-activated mouse RAW264.7 cells assessed as inhibition of LPS induced IL6 production treated 30 mins prior to LPS challenge measured after 6 hrs by RT-PCR analysis; type: functional, cell-based
[15] = test system: Mus musculus; experiment: Antiinflammatory activity in mouse infected with Influenza A virus (A/VietNam/1194/2004(H5N1)) NIBRG-14 assessed as reduction in IFN-gamma level in serum at 12 umol/kg/day, intranasally administered after 72 hrs by ELISA; type: functional, organism-based
[16] = test system: Plasma; experiment: Metabolic stability in Sprague-Dawley rat plasma assessed as compound degradation after 24 hrs by MALDI-TOF analysis; type: ADME, cell-free
[17] = test system: Mus musculus; experiment: Antiinflammatory activity in mouse infected with Influenza A virus (A/VietNam/1194/2004(H5N1)) NIBRG-14 assessed as reduction in IL6 level in serum at 12 umol/kg/day, intranasally administered after 72 hrs by ELISA; type: functional, organism-based
[18] = test system: Influenza A virus; experiment: Antiviral activity against Influenza A virus (A/California/07/2009(H1N1)) infected in BALB/c mouse assessed as protection from virus-induced death at 12 umol/kg/day, intranasally administered bid on days 1 to 4 and day 0 of infection measured over 14 days; type: functional, organism-based
[19] = test system: Influenza A virus; experiment: Antiviral activity against recombinant Influenza A virus (A/VietNam/1194/2004(H5N1)) NIBRG-14 assessed as inhibition of virus induced cytopathic effect; type: functional, organism-based
[20] = test system: Plasma; experiment: Metabolic stability in Sprague-Dawley rat plasma assessed as formation of compound 6 after 24 hrs by MALDI-TOF analysis; type: ADME, cell-free
[21] = test system: Plasma; experiment: Metabolic stability in Sprague-Dawley rat plasma assessed as formation of compound 6 after 24 hrs by LC-QTOF MS analysis; type: ADME, cell-free
[22] = test system: Influenza A virus; experiment: Antiviral activity against Influenza A virus (A/California/07/2009(H1N1)) infected in BALB/c mouse assessed as protection from virus-induced death at 0.0012 umol/kg/day, intranasally administered bid on days 1 to 4 and day 0 of infection measured over 14 days; type: functional, organism-based
[23] = test system: Influenza A virus; experiment: Ratio of zanamivir EC50 to compound EC50 for Influenza A virus (A/VietNam/1194/2004(H5N1)) NIBRG-14; type: functional
[24] = test system: Influenza A virus; experiment: Antiviral activity against Influenza A virus (A/California/07/2009(H1N1)) infected in BALB/c mouse assessed as protection from virus-induced death at 1.2 umol/kg/day, intranasally administered bid on days 1 to 4 and day 0 of infection measured after 12 days; type: functional, organism-based
[25] = test system: Plasma; experiment: Metabolic stability in Sprague-Dawley rat plasma assessed as compound degradation after 24 hrs by LC-QTOF MS analysis; type: ADME, cell-free

Neuraminidase (Influenza A virus (strain A/Wilson-Smith/1933 H1N1) (Influenza A virus(strain A/WS/1933 H1N1)), UniProt P03470), sequence (P03470 whole entry): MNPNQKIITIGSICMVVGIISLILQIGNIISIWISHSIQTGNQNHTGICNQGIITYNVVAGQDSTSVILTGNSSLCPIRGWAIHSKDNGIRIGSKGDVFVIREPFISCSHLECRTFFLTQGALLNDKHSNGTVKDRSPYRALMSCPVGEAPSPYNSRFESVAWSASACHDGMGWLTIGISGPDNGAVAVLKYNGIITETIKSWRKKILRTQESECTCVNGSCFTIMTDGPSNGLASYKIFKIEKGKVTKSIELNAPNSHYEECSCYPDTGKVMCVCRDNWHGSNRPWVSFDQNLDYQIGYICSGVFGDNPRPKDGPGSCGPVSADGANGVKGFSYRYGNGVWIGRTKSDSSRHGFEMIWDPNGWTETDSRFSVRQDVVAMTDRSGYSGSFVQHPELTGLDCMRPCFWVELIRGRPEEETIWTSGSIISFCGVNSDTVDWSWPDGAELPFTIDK

| SMILES | Activity [1] | EC50 [2] [nM] | IC50 [3] [nM] | also measured |
| --- | --- | --- | --- | --- |
| CC(=O)N[C@H]1[C@H]([C@H](OC(=O)NCCCOC(=O)c2ccc3ccccc3c2O)[C@H](O)CO)OC(C(=O)O)=C[C@@H]1NC(=N)N | Non-toxic | 50 | 0.7 | – |
| CC(=O)N[C@H]1[C@H]([C@H](O)[C@H](O)CO)OC(C(=O)OCCCOC(=O)/C=C/c2ccc(O)c(O)c2)=C[C@@H]1NC(=N)N | Non-toxic | 25 | 2850 | Stability [4]: Unstable; Stability [5]: Unstable |
| CC(=O)N[C@H]1[C@H]([C@H](O)[C@H](O)CO)OC(C(=O)O)=C[C@@H]1N=C(N)N [ZANAMIVIR] | Non-toxic | – | – | – |
| CC(=O)N[C@H]1[C@H]([C@H](OC(=O)NCCCNC(=O)/C=C/c2ccc(O)c(O)c2)[C@H](O)CO)OC(C(=O)O)=C[C@@H]1NC(=N)N | Non-toxic | 5.1 | 41.3 | Stability [6]: Stable; Stability [7]: Stable; Activity [8]: Active; Activity [9]: Active; Activity [10]: 100%; Activity [11]: inactive; Activity [12]: 50% |
| O=C(O)c1ccc2ccccc2c1O [CARBOXYNAPHTHOL] | Non-toxic | > 100000 | > 100000 | – |
| O=C(O)/C=C/c1ccc2c(c1)OCO2 | Non-toxic | > 100000 | > 100000 | Activity [13]: Dose-dependent effect; Activity [14]: Dose-dependent effect |
| CC(=O)N[C@H]1[C@H]([C@H](O)[C@H](O)CO)OC(C(=O)OCCCOC(=O)c2cc(N)ccc2O)=C[C@@H]1NC(=N)N | Non-toxic | 16 | 996 | – |
| CC(=O)N[C@H]1[C@H]([C@H](OC(=O)NCCCOC(=O)c2cc(N)ccc2O)[C@H](O)CO)OC(C(=O)O)=C[C@@H]1NC(=N)N | Non-toxic | 3.3 | 8.6 | Activity [15]: Active; Activity [13]: Dose-dependent effect; Stability [16]: Unstable; Activity [17]: Active; Activity [14]: Dose-dependent effect; Activity [9]: inactive; Activity [18]: Active; EC50 [19]: 430 nM |
| CC(=O)N[C@H]1[C@H]([C@H](OC(=O)NCCCOC(=O)/C=C/c2ccc(O)c(O)c2)[C@H](O)CO)OC(C(=O)O)=C[C@@H]1NC(=N)N | Non-toxic | 1.4 | 2.9 | Stability [20]: Unstable; Stability [21]: Unstable; Activity [15]: Active; Activity [13]: Dose-dependent effect; Stability [16]: Unstable; Activity [17]: Active; Activity [14]: Dose-dependent effect; Activity [9]: Active; Activity [10]: Active; Activity [22]: inactive; Activity [11]: 40%; Activity [12]: Active; Activity [18]: Active; Ratio EC50 [23]: 13; EC50 [19]: 50 nM |
| CC(=O)N[C@H]1[C@H]([C@H](OC(=O)NCCCOC(=O)c2ccc(O)c(O)c2)[C@H](O)CO)OC(C(=O)O)=C[C@@H]1NC(=N)N | Non-toxic | 53 | 2.9 | – |
| O=C(O)/C=C/c1ccc(O)c(O)c1 [CAFFEIC ACID] | Non-toxic | > 100000 | > 100000 | Activity [13]: Dose-dependent effect; Activity [14]: Dose-dependent effect; Activity [24]: inactive; Activity [18]: Active |
| Nc1ccc(O)c(C(=O)O)c1 [MESALAMINE] | Non-toxic | > 100000 | > 100000 | Activity [13]: Dose-dependent effect; Activity [14]: Dose-dependent effect; Activity [18]: Active |
| CC(=O)N[C@H]1[C@H]([C@H](O)[C@H](O)CO)OC(C(=O)OCCCOC(=O)c2ccc3ccccc3c2O)=C[C@@H]1NC(=N)N | Non-toxic | – | 590 | Stability [25]: Unstable; Stability [16]: Unstable |
| CC(=O)N[C@H]1[C@H]([C@H](OC(=O)NCCCOC(=O)/C=C/c2ccc3c(c2)OCO3)[C@H](O)CO)OC(C(=O)O)=C[C@@H]1NC(=N)N | Non-toxic | 66 | 5.4 | – |
| CC(=O)N[C@H]1[C@H]([C@H](O)[C@H](O)CO)OC(C(=O)O)=C[C@@H]1NC(=N)N [ZANAMIVIR] | – | 3.5 | – | Activity [15]: Active; Activity [17]: Active; Activity [24]: inactive; Activity [9]: inactive; Activity [18]: Active |
| CC(=O)N[C@H]1[C@H]([C@H](O)[C@H](O)CO)OC(C(=O)OCCCOC(=O)/C=C/c2ccc3c(c2)OCO3)=C[C@@H]1NC(=N)N | Non-toxic | 28 | 3990 | – |
| CC(=O)N[C@H]1[C@H]([C@H](OC(=O)NCCCNC(=O)c2ccc3ccccc3c2O)[C@H](O)CO)OC(C(=O)O)=C[C@@H]1NC(=N)N | Non-toxic | 6.6 | 3.1 | – |
| CC(=O)N[C@H]1[C@H]([C@H](OC(=O)NCCCO)[C@H](O)CO)OC(C(=O)O)=C[C@@H]1NC(=N)N | Non-toxic | 105 | 11.7 | EC50 [19]: 820 nM |
